Assay results: patent US4220790A, “1-N,N-Dimethylcarbamyl-3-tert.butyl-5-methylthio-1,2,4-triazole” (priority 1977, dated 1980)

Experiments:
[1] = test system: insects of the orders Coleoptera and Orthoptera; experiment: Effectiveness against insects of the orders Coleoptera and Orthoptera; type: in vivo
[2] = test system: Southern Corn Rootworm; experiment: Southern corn rootworm (SCR) test in cups with corn; type: in vivo; conditions: for Corn Rootworm (SCR) rating: nine days after treatment; for toxicity to corn rootworm (in words): comparative tests, nineteen compounds
Experimental: Method for Southern Corn Rootworm (SCR)
Three 5 oz. paper cups planted each with one kernel of DeKalb XL-361 corn are treated two days after planting with 10 ml of a 125 ppm solution of the candidate compound. Compounds with high efficacy are tested at lower concentrations. The experiment is a 4×5 factorial in a randomized complete block design with three replications. The tests are evaluated nine days after treatment. The roots are inspected under a dissecting microscope and rated as follows:
SCR Rating % Root Feeding Damage
So as to obtain more meaningful results, all tests are performed at the same time of day, whenever possible, usually in the forenoon. Temperature,illumination and humidity are the same in all tests. Atmospheric pressure is not controlled.
(§1) Results obtained with the novel insecticide of this invention at various concentrations of active chemical are tabulated below. The ratings given are for averages of three or more replicates. The oral lethal dose for 50 percent kill of laboratory rats is also recorded in the table. In conducting the toxicity tests on rats, 0.01 g of active chemical per ml in corn oil is employed as an additive to the diet of the animals.

[3] = test system: Southern corn rootworm; experiment: Corn rootworm control under corn growing conditions, aging in soil, root damage rating; type: in vivo, Diabrotica undecimpunctata howardi; design: AVERAGE ROOT DAMAGE RATINGS, Test No. 1 / AVERAGE ROOT DAMAGE RATINGS, Test No. 2 / AVERAGE ROOT DAMAGE RATINGS, Test No. 3 / AVERAGE ROOT DAMAGE RATINGS, Test No. 4 / AVERAGE ROOT DAMAGE RATINGS, Test No. 5: scale not given here; conditions: for AVERAGE ROOT DAMAGE RATINGS, Test No. 3 / AVERAGE ROOT DAMAGE RATINGS, Test No. 4 / AVERAGE ROOT DAMAGE RATINGS, Test No. 5: 1.0 lb/A; for AVERAGE ROOT DAMAGE RATINGS, Test No. 3 / AVERAGE ROOT DAMAGE RATINGS, Test No. 1: aged 11 days; for AVERAGE ROOT DAMAGE RATINGS, Test No. 4: aged 26 days; for AVERAGE ROOT DAMAGE RATINGS, Test No. 5 / AVERAGE ROOT DAMAGE RATINGS, Test No. 2: aged 41 days; for AVERAGE ROOT DAMAGE RATINGS, Test No. 1 / AVERAGE ROOT DAMAGE RATINGS, Test No. 2: 10.0 lb/A
Excerpt: During this period of time in the soil the insecticide concentration diminishes as a result of leaching and the action of oxygen and soil microbes, so that it is difficult to maintain sufficient concentration to kill the rootworms. […] Less than a half dozen compounds enjoy substantial commercial success for this purpose. […] Carbofuran was therefore selected as a standard for comparison of his compound and closely related compounds for corn rootworm control under corn growing conditions. The organism used in these tests were Diabrotica undecimpunctata howardi, the Southern corn rootworm. The following method was employed in the tests:
Two parallel rows of corn (Pioneer 385 g×526 g untreated) were planted 2" apart down the center of Mirro No. C8509 aluminum bread pans, 5 kernels corn per row in greenhouse potting soil. The dimensions of the bread pans are 95/8"×51/2"×23/4" and lack holes in the bottoms of the pans. Each kernel of corn at time of germination was infested with 3-day-old SCR eggs, approximately 50 eggs per kernel. Test pans were treated by drenching 200 mls of test solution (Triton X-100, water and the test chemical dissolved in 5 mls acetone) on the surface of the soil in the bread pan. The schedule for treating, planting corn, and infesting with corn rootworm eggs were varied to test aging characteristics of the compounds in soil. The test pans were watered daily and held at 80° F. and 50% R.H. until rated. Root damage rating was done by the following rating sequence:
Rating % Root Damage Rating
The chemical compound which were tested were those of the structural formula [drawing 5] in which R represents tert.butyl, methyl, ethyl, propyl, butyl and isobutyl.
The comparison standard was carbofuran (2,3-dihydro-2,2-dimethyl-7-benzofuranyl methylcarbamate).
The tests were conducted during the months of July and August according to the time schedule as set forth below: […]

[4] = test system: two-spotted mites; experiment: Spray test on two-spotted mites (TSM); design: species or system two-spotted mite; conditions: in vivo
Experimental: Method for Mites, Aphids, Bean Beetles and Army Worms
Three 5 oz. paper cups containing Henderson dwarf lima bean plants and one 5 oz. paper cup containing Orange Gem nasturtiums, all growing in vermiculite, are placed on a turntable and sprayed to thorough wetness with 25 ml of a solution of the candidate chemical at the appropriate concentration. Nasturtiums were already infested with 50-100 bean aphids (BA). A bean plant in one paper cup was already infested with 50-100 two-spotted mites (TSM). Leaves from the two remaining bean plants are removed following spraying and placed in disposable petri dishes with 5 southern armyworm (SA) larvae in one petri dish, and 5 Mexican bean beetle (MBB) larvae in the other petri dish. The rating is done approximately 48 hours after spraying as follows:
as §1

| SMILES | insecticidal effectiveness (in words) [1] | Corn Rootworm (SCR) rating ([2]; 3 ppm, listed as U.S.Ser.No. 842,760) | Corn Rootworm (SCR) rating ([2]; 6 ppm) | toxicity to corn rootworm (in words) [2] | AVERAGE ROOT DAMAGE RATINGS, Test No. 3 [3] | AVERAGE ROOT DAMAGE RATINGS, Test No. 4 [3] | AVERAGE ROOT DAMAGE RATINGS, Test No. 5 [3] | AVERAGE ROOT DAMAGE RATINGS, Test No. 1 [3] | AVERAGE ROOT DAMAGE RATINGS, Test No. 2 [3] | duration of efficacy against corn rootworm (in words) ([3]; compared with carbofuran) | miticidal activity (in words) [4] | Corn Rootworm (SCR) rating ([2]; 3 ppm) | Corn Rootworm (SCR) rating ([2]; 12 ppm) | Corn Rootworm (SCR) rating ([2]; 25 ppm) | Corn Rootworm (SCR) rating ([2]; 100 ppm) | total kill of corn rootworm (in words) ([2]; any concentration) |
| --- | --- | --- | --- | --- | --- | --- | --- | --- | --- | --- | --- | --- | --- | --- | --- | --- |
| CSc1nc(C(C)(C)C)nn1C(=O)N(C)C [1-N,N-Dimethylcarbamyl-3-tert.butyl-5-methylthio-1,2,4-triazole] | effective against insects of the orders Coleoptera and Orthoptera | 3.0 | 3.3 | displayed toxicity to corn rootworm | 4.5 | 4.1 | 4.6 | 5.0 | 4.3 | efficacy of long duration, comparable to the commercial insecticide | absence of miticidal activity |  |  |  |  |  |
| CNC(=O)Oc1cccc2c1OC(C)(C)C2 [Carbofuran, 2,3-dihydro-2,2-dimethyl-7-benzofuranyl methylcarbamate] |  |  |  |  | 4.3 | 3.8 | 4.7 | 4.8 | 4.1 |  |  |  |  |  |  |  |
| CCc1nc(SC)n(C(=O)N(C)C)n1 [Example XVI] |  |  |  | displayed toxicity to corn rootworm |  |  |  |  |  |  |  | 0.5 | 2.5 | 3.5 | 3.7 | failed to give a total kill at any concentration |
| CCCCc1nc(SC)n(C(=O)N(C)C)n1 [R' = butyl] |  |  |  |  | 0 (100) | 0.4 | 0.5 | 4.4 | 3.6 |  |  |  |  |  |  |  |
| CCc1nc(SC)n(C(=O)N(C)C)n1 [R' = ethyl] |  |  |  |  | 0 (100) | 1.1 | 1.0 | 4.3 | 3.0 |  |  |  |  |  |  |  |
| CSc1nc(CC(C)C)nn1C(=O)N(C)C [R' = isobutyl] |  |  |  |  | 0.6 | 0.3 | 2.3 | 4.8 | 3.6 |  |  |  |  |  |  |  |
| CSc1nc(C)nn1C(=O)N(C)C [R' = methyl] |  |  |  |  | 0 (100) | 0.1 | 0.5 | 2.7 | 0 (100) |  |  |  |  |  |  |  |
| CCCc1nc(SC)n(C(=O)N(C)C)n1 [R' = propyl] |  |  |  |  | 0.3 | 1.8 | 2.3 | 4.4 | 3.1 |  |  |  |  |  |  |  |
